Literature values, collected in Sander's compilation of Henry's law constants (doi:10.1007/978-1-4612-3850-8_1).
Values joined by “and” are separate entries in the source; they are usually repeats but may differ in a detail not shown here. Equal values may be shown once.

Assay: Henry solubility constant Hcp at 293 K (mol/(m3 Pa))
Conditions: reference: Suntio et al. (1988); cited value

SMILES	Henry solubility constant Hcp at 293 K
CC1=CC(=O)CC(C)(C)C1 [3,5,5-trimethyl-2-cyclohexen-1-one]	1.8
CNC(=O)O/N=C/C(C)(C)SC [aldicarb]	1.9
ClC1=C(Cl)[C@]2(Cl)[C@@H]3[C@@H]4C[C@@H]([C@H]5O[C@@H]45)[C@@H]3[C@@]1(Cl)C2(Cl)Cl [dieldrin]	50
ClC1(Cl)C2(Cl)C3(Cl)C4(Cl)C(Cl)(Cl)C5(Cl)C3(Cl)C1(Cl)C5(Cl)C24Cl (centres undefined) [mirex]	0.00099
ClC(Cl)=C(c1ccc(Cl)cc1)c1ccccc1Cl [o,p'-DDE]	0.14
C=CC=O [propenal]	0.18
ClC1C(Cl)C(Cl)C(Cl)C(Cl)C1Cl (centres undefined) [γ-1,2,3,4,5,6-hexachlorocyclohexane]	20

Assay: Henry solubility constant Hcp at 298.15 K (mol/(m3 Pa))
Conditions: reference: Suntio et al. (1988); cited value

SMILES	Henry solubility constant Hcp
Clc1ccc(C(c2ccc(Cl)cc2)C(Cl)(Cl)Cl)cc1 [1,1,1-trichloro-2,2-bis-(4-chlorophenyl)-ethane]	0.17
ClC(Cl)=C(c1ccc(Cl)cc1)c1ccc(Cl)cc1 [1,1-dichloro-2,2-bis-(4-chlorophenyl)-ethene]	0.45
ClC1=C(Cl)[C@]2(Cl)C3C(Cl)C(Cl)CC3[C@@]1(Cl)C2(Cl)Cl (some centres undefined) [chlordane]	0.2 and 0.11
ClC1=C(Cl)[C@]2(Cl)[C@@H]3[C@H]4C[C@H]([C@@H]5O[C@H]45)[C@@H]3[C@@]1(Cl)C2(Cl)Cl [endrin]	5600
Clc1ccc(C(c2ccccc2Cl)C(Cl)Cl)cc1 (centres undefined) [mitotane]	560
ClC1C(Cl)C(Cl)C(Cl)C(Cl)C1Cl (stereo not drawn) [α-1,2,3,4,5,6-hexachlorocyclohexane]	1.8
ClC1C(Cl)C(Cl)C(Cl)C(Cl)C1Cl (stereo not drawn) [β-1,2,3,4,5,6-hexachlorocyclohexane]	56
